Source: patent publication US20110269811A1, “INHIBITORS OF SEMICARBAZIDE-SENSITIVE AMINE OXIDASE (SSAO) AND VAP-1 MEDIATED ADHESION USEFUL FOR TREATMENT AND PREVENTION OF DISEASES” (priority 2006, published 2011)

Experiments:
[1] = target: T1, NE transporter (h) (Homo sapiens, UniProt P23975); experiment: Receptor binding screen, [^3H]nisoxetine; conditions: 10 uM Concentration of Compound I-1-Z; read-out: Mean Value, percent inhibition of control specific binding: NE transporter (h)
T1 construct: expressed in transfected cells; host or cells: CHO cells
T1 sequence (P23975 whole entry): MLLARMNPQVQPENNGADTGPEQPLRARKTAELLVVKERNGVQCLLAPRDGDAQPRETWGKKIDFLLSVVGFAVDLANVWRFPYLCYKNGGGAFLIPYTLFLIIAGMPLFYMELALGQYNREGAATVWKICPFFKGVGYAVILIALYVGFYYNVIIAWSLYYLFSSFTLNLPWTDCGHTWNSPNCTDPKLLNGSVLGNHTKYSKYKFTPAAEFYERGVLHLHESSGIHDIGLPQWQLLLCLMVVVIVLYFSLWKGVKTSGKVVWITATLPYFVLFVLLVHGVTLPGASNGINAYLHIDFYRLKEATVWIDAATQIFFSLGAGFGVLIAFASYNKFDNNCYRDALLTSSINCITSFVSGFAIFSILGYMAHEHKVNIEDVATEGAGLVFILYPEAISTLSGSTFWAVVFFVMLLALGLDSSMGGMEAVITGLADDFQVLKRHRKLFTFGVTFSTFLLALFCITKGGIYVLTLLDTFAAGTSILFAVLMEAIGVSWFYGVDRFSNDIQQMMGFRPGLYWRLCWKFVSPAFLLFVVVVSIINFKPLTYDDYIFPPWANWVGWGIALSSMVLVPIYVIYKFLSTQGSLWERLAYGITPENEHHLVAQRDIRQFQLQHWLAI

[2] = tested on: P2Y; experiment: Receptor binding screen, [^35S]dATPαS; set-up: species or system rat; conditions: 10 uM Concentration of Compound I-1-Z
[3] = tested on: BB (non-selective); experiment: Receptor binding screen, [^125I][Tyr^4]bombesin; set-up: species or system rat; conditions: 10 uM Concentration of Compound I-1-Z
Protocol: (§1) For Table 4 below, the specific ligand binding to the receptors is defined as the difference between the total binding and the nonspecific binding determined in the presence of an excess of unlabelled ligand. The results are expressed as a percent inhibition of control specific binding obtained in the presence of Compound I-1-Z. The IC50 values (concentration causing a half-maximal inhibition of control specific binding) and Hill coefficients (nH) were determined by non-linear regression analysis of the competition curves using Hill equation curve fitting. The inhibition constants (Ki) were calculated from the Cheng Prusoff equation (Ki=IC50/(1+(L/KD)), where L=concentration of radioligand in the assay, and KD=affinity of the radioligand for the receptor). In each experiment, the respective reference compound was tested concurrently with Compound I-1-Z in order to assess the assay suitability.

[4] = target: T2, MC4 (h) (Homo sapiens, UniProt P32245); experiment: Receptor binding screen, [^125I]NDP-α-MSH; conditions: 10 uM Concentration of Compound I-1-Z; read-out: Mean Value, percent inhibition of control specific binding: MC4 (h)
T2 construct: expressed in transfected cells; host or cells: CHO cells
T2 sequence (P32245 whole entry): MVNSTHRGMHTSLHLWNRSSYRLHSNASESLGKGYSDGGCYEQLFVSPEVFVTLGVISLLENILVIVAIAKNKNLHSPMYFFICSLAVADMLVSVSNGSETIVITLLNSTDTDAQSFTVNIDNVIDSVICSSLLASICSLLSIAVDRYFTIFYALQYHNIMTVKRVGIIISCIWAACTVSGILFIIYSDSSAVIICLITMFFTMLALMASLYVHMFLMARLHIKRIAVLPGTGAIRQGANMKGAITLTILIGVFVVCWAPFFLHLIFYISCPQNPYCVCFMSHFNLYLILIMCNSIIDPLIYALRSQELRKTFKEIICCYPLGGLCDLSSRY

[5] = target: T3, V1a (h) (Homo sapiens, UniProt P37288); experiment: Receptor binding screen, [^3H]AVP; conditions: 10 uM Concentration of Compound I-1-Z; read-out: Mean Value, percent inhibition of control specific binding: V1a (h)
T3 construct: expressed in transfected cells; host or cells: CHO cells
T3 sequence (P37288 whole entry): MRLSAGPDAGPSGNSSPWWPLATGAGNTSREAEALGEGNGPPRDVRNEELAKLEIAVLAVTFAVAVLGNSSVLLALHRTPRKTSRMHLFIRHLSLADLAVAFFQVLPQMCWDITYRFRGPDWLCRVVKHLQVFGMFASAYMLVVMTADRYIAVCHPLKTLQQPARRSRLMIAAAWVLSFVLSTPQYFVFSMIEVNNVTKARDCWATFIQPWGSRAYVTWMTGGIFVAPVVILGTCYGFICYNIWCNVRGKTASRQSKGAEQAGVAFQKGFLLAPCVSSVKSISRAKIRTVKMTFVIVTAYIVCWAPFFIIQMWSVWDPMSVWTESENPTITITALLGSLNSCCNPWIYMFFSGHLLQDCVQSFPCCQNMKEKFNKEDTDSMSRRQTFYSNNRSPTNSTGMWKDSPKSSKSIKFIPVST

[6] = tested on: α1 (non-selective); experiment: Receptor binding screen, [^3H]prazosin; set-up: species or system rat; conditions: 10 uM Concentration of Compound I-1-Z
Protocol: as §1

[7] = target: T4, Y1 (h) (Homo sapiens, UniProt P25929); experiment: Receptor binding screen, [^125I]peptide YY, SK-N-MC cells; conditions: 10 uM Concentration of Compound I-1-Z; read-out: Mean Value, percent inhibition of control specific binding: Y1 (h)
T4 construct: SK-N-MC cells; endogenous in cells; host or cells: SK-N-MC cells
T4 sequence (P25929 whole entry): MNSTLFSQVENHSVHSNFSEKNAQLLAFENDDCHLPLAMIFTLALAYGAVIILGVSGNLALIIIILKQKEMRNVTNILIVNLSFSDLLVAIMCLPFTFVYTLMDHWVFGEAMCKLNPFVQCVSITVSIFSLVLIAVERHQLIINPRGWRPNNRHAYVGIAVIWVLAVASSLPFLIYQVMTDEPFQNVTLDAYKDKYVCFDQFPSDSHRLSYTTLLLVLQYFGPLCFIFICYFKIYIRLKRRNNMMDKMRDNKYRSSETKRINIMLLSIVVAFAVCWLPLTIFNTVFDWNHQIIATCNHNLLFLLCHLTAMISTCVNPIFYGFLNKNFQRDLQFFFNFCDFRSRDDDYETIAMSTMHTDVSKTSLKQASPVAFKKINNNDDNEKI

[8] = target: T5, β1 (h) (Homo sapiens, UniProt P08588); experiment: Receptor binding screen, [^3H](−)CGP 12177; conditions: 10 uM Concentration of Compound I-1-Z; read-out: Mean Value, percent inhibition of control specific binding: β1 (h)
T5 construct: expressed in transfected cells; host or cells: HEK-293 cells
T5 sequence (P08588 whole entry): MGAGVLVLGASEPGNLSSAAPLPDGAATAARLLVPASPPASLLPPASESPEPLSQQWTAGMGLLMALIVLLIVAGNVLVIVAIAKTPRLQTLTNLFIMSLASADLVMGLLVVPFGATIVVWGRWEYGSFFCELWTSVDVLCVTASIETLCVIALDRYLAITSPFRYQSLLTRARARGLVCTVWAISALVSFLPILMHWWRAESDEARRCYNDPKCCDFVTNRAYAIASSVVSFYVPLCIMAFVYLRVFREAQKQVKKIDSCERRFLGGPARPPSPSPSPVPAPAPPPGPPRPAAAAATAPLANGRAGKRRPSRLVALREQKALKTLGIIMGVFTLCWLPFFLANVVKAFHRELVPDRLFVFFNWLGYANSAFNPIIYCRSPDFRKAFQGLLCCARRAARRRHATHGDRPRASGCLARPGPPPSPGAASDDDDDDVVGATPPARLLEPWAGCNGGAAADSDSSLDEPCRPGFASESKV

[9] = target: T6, ORL1 (h) (NOP) (Homo sapiens, UniProt P41146); experiment: Receptor binding screen, [^3H]nociceptin; conditions: 10 uM Concentration of Compound I-1-Z; read-out: Mean Value, percent inhibition of control specific binding: ORL1 (h) (NOP)
T6 construct: expressed in transfected cells; host or cells: HEK-293 cells
T6 sequence (P41146 whole entry): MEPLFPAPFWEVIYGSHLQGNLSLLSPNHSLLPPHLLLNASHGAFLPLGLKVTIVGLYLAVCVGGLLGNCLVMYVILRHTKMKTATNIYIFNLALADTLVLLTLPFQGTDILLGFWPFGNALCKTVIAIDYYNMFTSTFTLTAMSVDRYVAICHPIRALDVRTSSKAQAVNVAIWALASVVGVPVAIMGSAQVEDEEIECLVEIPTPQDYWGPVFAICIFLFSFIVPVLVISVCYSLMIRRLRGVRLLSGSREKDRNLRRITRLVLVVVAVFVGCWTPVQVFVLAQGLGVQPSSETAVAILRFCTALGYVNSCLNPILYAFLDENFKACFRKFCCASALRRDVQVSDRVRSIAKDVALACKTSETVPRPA
Protocol: as §1

[10] = target: T7, MT1 (h) (Homo sapiens, UniProt P48039); experiment: Receptor binding screen, [^125I]iodomelatonin; conditions: 10 uM Concentration of Compound I-1-Z; read-out: Mean Value, percent inhibition of control specific binding: MT1 (h)
T7 construct: expressed in transfected cells; host or cells: CHO cells
T7 sequence (P48039 whole entry): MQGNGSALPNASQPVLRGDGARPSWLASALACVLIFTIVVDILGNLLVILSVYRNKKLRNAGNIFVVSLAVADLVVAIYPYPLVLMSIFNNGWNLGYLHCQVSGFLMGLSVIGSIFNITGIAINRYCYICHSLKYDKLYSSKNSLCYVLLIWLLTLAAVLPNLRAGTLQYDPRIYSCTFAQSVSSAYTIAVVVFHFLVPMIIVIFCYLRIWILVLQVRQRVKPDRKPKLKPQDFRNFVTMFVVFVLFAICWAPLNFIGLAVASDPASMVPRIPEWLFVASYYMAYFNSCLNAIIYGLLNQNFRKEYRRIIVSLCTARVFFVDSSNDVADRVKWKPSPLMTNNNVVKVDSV

[11] = tested on: collagen-induced arthritis; experiment: Collagen-induced arthritis by direct injection of Type II collagen; assay type: in vivo, B10RIII mice; conditions: FIG. 15
Protocol: Collagen-induced arthritis can also be induced by direct injection of collagen. Groups of 15 male B10RIII mice were injected intradermally with Type II collagen in Complete Freund Adjuvant (CFA) on days 0 and 15. Mice were dosed p.o. starting from day 0 to day 28 with phosphate buffered saline (PBS), 5 mg/kg compound I-1-Z, 30 mg/kg compound I-1-Z or 0.2 mg/kg dexamethasone. […] Clinical scores were determined daily for each paw based on a scale between 0-5 based on joint erythema and swelling. Statistical analysis was by Student's t-test versus the PBS-treated disease control group.

[12] = target: T8, 5-HT2C (h) (Homo sapiens, UniProt P28335); experiment: Receptor binding screen, [^3H]mesulergine; conditions: 10 uM Concentration of Compound I-1-Z; read-out: Mean Value, percent inhibition of control specific binding: 5-HT2C (h)
T8 construct: expressed in transfected cells; host or cells: CHO cells
T8 sequence (P28335 33-458): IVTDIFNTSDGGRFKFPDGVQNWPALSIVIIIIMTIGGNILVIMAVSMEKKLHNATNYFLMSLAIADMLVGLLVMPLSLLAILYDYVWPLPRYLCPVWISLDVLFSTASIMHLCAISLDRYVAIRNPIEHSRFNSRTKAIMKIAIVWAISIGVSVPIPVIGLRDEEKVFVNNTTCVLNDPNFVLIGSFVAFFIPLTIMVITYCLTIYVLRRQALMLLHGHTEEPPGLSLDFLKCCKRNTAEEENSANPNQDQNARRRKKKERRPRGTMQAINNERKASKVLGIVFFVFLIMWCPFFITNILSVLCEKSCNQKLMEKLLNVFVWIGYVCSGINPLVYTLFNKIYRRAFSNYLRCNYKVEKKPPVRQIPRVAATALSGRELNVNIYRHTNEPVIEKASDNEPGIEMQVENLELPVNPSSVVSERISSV

[13] = target: T9, A2A (h) (Homo sapiens, UniProt P29274); experiment: Receptor binding screen, [^3H]CGS 21680; conditions: 10 uM Concentration of Compound I-1-Z; read-out: Mean Value, percent inhibition of control specific binding: A2A (h)
T9 construct: expressed in transfected cells; host or cells: HEK-293 cells
T9 sequence (P29274 whole entry): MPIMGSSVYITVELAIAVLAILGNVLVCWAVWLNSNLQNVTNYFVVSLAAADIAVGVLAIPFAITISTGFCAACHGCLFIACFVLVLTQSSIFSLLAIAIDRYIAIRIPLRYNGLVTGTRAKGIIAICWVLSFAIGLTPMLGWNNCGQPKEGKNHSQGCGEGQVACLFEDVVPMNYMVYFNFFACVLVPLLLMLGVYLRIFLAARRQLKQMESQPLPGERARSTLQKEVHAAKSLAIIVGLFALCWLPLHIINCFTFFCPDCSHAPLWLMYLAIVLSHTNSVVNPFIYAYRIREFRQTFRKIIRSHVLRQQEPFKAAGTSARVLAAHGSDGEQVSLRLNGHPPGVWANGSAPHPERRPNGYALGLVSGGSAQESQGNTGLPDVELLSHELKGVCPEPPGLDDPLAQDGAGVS

[14] = target: T10, ETA (h) (Homo sapiens, UniProt P25101); experiment: Receptor binding screen, [^125I]endothelin-1; conditions: 10 uM Concentration of Compound I-1-Z; read-out: Mean Value, percent inhibition of control specific binding: ETA (h)
T10 construct: expressed in transfected cells; host or cells: CHO cells
T10 sequence (P25101 21-427): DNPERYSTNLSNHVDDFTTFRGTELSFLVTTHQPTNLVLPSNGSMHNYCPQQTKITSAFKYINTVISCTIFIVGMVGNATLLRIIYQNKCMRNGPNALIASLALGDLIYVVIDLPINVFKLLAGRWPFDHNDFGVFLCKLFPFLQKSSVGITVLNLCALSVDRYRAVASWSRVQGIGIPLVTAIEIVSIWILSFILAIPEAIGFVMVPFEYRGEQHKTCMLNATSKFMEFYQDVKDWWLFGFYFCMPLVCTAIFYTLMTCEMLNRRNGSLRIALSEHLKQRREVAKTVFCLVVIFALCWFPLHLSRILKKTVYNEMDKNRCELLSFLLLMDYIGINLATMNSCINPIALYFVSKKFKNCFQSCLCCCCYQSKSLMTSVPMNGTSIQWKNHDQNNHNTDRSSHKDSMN

[15] = target: T11, NK2 (h) (Homo sapiens, UniProt P21452); experiment: Receptor binding screen, [^125I]NKA; conditions: 10 uM Concentration of Compound I-1-Z; read-out: Mean Value, percent inhibition of control specific binding: NK2 (h)
T11 construct: expressed in transfected cells; host or cells: CHO cells
T11 sequence (P21452 whole entry): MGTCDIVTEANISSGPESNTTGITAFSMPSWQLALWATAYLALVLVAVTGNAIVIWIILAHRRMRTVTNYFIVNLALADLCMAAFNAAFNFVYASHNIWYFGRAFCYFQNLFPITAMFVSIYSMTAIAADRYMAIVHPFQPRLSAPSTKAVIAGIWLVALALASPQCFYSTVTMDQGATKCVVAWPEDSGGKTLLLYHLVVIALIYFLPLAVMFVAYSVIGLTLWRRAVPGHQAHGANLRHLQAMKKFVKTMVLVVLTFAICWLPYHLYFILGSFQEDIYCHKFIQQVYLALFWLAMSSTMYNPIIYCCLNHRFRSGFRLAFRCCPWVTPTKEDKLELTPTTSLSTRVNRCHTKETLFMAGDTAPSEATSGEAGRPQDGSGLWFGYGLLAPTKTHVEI

[16] = tested on: oxazolone-induced colitis; experiment: Oxazolone-induced colitis; assay type: in vivo, SJL/J male mice; conditions: 30 mg/kg intraperitoneally, day 0 until day 12; FIG. 2A, 2B
Protocol: Oxazolone-induced colitis is a TH2-mediated process that closely resembles ulcerative colitis and is responsive to anti-IL4 therapy ((Strober W. et al (2002) Annu. Rev. Immunol. 20: 495, Boirivant M. et al. (1998) J. Ex. Med. 188: 1929). Oxazolone colitis is induced as described (Fuss I. J. et al. (2002) J. Immunol. 168: 900). Briefly, mice are pre-sensitized by epicutaneous application of 1% oxazolone (4-ethoxymethylene-2-phenyl-2oxazolin-5-one, Sigma) in 100% EtOH (200 μL) on day 0, followed by intrarectal administration of 0.75% oxazolone in 50% EtOH (100 μL) to anesthetized SJL/J male mice on day 5 through a 3.5 F catheter inserted 4 cm proximal to the anal verge. Mice are divided in two treatment groups and injected i.p. twice a day with either PBS or a compound of the invention. Injections are initiated at day 0 and are continued through day 12. Disease progression is evaluated by monitoring body weight and survival.
A study was carried out using the protocol described above for oxazolone-induced colitis. […] Disease progression was evaluated until day 15 (10 days after intrarectal administration) by monitoring survival rates and body weight. When following the above-described protocol, disease severity as measured by body weight drop was maximal at day 11 (6 days after intrarectal challenge), although animals started dying on day 9.

SMILES	inhibition at 10 µM [1] [%]	Mean Value, percent inhibition of control specific binding: P2Y [2] [%]	Mean Value, percent inhibition of control specific binding: BB (non-selective) [3] [%]	inhibition at 10 µM [4] [%]	inhibition at 10 µM [5] [%]	Mean Value, percent inhibition of control specific binding: α1 (non-selective) [6] [%]	inhibition at 10 µM [7] [%]	inhibition at 10 µM [8] [%]	inhibition at 10 µM [9] [%]	inhibition at 10 µM [10] [%]	incidence of arthritis and clinical scores as compared to PBS ([11]; 5 mg/kg p.o. day 0 to day 28)	clinical efficacy ([11]; 30 mg/kg p.o. day 0 to day 28)	inhibition at 10 µM [12] [%]	inhibition at 10 µM [13] [%]	inhibition at 10 µM [14] [%]	inhibition at 10 µM [15] [%]	survival rates and body weight loss compared with the vehicle group [16]
COc1ccc(C/C(=C/F)CN)cc1.Cl [Compound I-1-Z, (Z)-3-Fluoro-2-(4-methoxybenzyl)-allylamine hydrochloride]	68	−1	21	8	9	8	-2	5	-9	0	reduced both the incidence of arthritis and the clinical scores	no clinical efficacy was observed	21	13	8	3	
NC/C(F)=C\Cc1cc(F)cc(C(F)(F)F)c1 [II-1-E, (E)-2-Fluoro-4-(3-fluoro-5-trifluoromethylphenyl)-but-2-enylamine]																	improved survival rates and body weight loss
